{"source": "PubChem BioAssay (NCI)", "note": "Several values for one entry are separate records, joined by “and”; a condition that tells them apart may be missing. Identical values can stand only once.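 Protocol summary: plate cells (96-well), add compound at 5 concentrations, incubate 48 h, interpolate endpoints linearly. GI50: concentration for 50% inhibition of growth. TGI: total growth inhibition.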"}
{"test_system": "SF-268 CNS", "assay": "NCI-60 cell line screen, 48 h", "units": {"TGI": "µM"}}
{"compound": "CC(=O)OC[C@]12CC[C@H]3[C@@H](C[C@H]4O[C@]45[C@@H](O)C=CC(=O)[C@]35C)[C@@H]1CC[C@@H]2[C@H](C)[C@H]1CC(C)=C(C)C(=O)O1", "GI50": "0.397 µM and 0.376 µM", "TGI": 1.28}
{"compound": "O=C(Nc1ccc(Cl)cc1)c1cc(-c2ccc(F)cc2)c2sc(=O)[nH]c2n1", "GI50": "2.59 µM", "TGI": 17.2}
{"compound": "Cc1cn2c(/C=C3/C(=O)N(C)c4ccccc43)c(C)nc2s1", "GI50": "22.1 µM", "TGI": "> 100"}
{"compound": "CCOC(=O)NC(=O)c1cn(CCOCCOC(=O)NCCCCCCNC(=O)OCCOCCn2cc(C(=O)NC(=O)OCC)c(=O)[nH]c2=O)c(=O)[nH]c1=O", "TGI": "> 100"}
{"compound": "Cc1ccc(C(=NN=C(N)N)c2ccc(C)cc2)cc1", "GI50": "0.636 µM", "TGI": 6.57}
{"compound": "CCS(=O)(=O)c1ccc(OC)c(Nc2ncc(-c3cccc(OC)c3)o2)c1", "GI50": "8.84 µM", "TGI": "> 25"}
{"compound": "CCCCN=C(N)c1ccc(OCCSCCOc2ccc(C(N)=NCCCC)cc2)cc1", "GI50": "5.32 µM", "TGI": "> 100"}
{"compound": "COC(=O)c1cccc2cccc(C(=O)Nc3ccc(C)cc3C)c12", "TGI": "> 100"}
{"compound": "CC(C)c1ccc(C(=O)Nc2sc3c(c2C(N)=O)CCC(=O)C3)cc1", "GI50": "0.571 µM", "TGI": 3.45}
{"compound": "Cc1ccccc1N(CCC#N)C1=NN(C(=O)CC(=O)Nc2ccccc2)C(c2ccccc2)C1", "note": "(stereo not drawn)", "TGI": "> 100"}
{"compound": "CC1(n2nc(-c3ccccc3)n(-c3ccccc3)c2=O)CSC1", "TGI": "> 100"}
{"test_system": "COLO 205 colon", "assay": "NCI-60 cell line screen, 48 h", "units": {"TGI": "µM"}}
{"compound": "CC(=O)OC1CC(O)C23COC(O)C1(C)C2CC(O)C1(C)C3C(=O)C(O)C2(C)C(c3ccoc3)CC3OC321", "note": "(stereo not drawn)", "GI50": "< 0.01 µM", "TGI": "> 100"}
{"compound": "Cn1cc(C(=O)c2ccccc2)ccc1=O", "TGI": "> 100"}
{"compound": "COc1ccc(C(C)c2cc3c(cc2OC)OCO3)cc1", "note": "(stereo not drawn)", "TGI": 0.927}
{"compound": "O=C(CP(=O)(c1ccccc1)c1ccccc1)c1cccc(C(=O)CP(=O)(c2ccccc2)c2ccccc2)c1", "TGI": "> 100"}
{"compound": "CCc1[nH]c(=O)nc(N)c1-c1ccc(N2CCCCC2)c([N+](=O)[O-])c1", "TGI": "> 100"}
{"compound": "COC(=O)C(=O)C(C(=O)C(=O)Nc1ccccc1C(N)=O)c1nc2ccc(Cl)cc2[nH]c1=O", "note": "(stereo not drawn)", "TGI": "> 100"}
{"compound": "CCC#CC[C@H]1C/C=C2/C(=O)C=C[C@@H]2C/C=C\\CCCC(=O)O1", "GI50": "0.961 µM", "TGI": 2.1}
{"compound": "COc1cc(OC)c(/C=C/C(=O)c2c(OC)cccc2OC)c(OC)c1", "GI50": "0.619 µM"}
{"compound": "COc1cc[nH]c1/C=C1\\C(=O)Nc2ccccc21", "GI50": "14.1 µM", "TGI": "> 25"}
{"compound": "CC(=O)OC[C@]12CC[C@H]3[C@@H](C[C@H]4O[C@]45[C@@H](O)C=CC(=O)[C@]35C)[C@@H]1CC[C@@H]2[C@H](C)[C@H]1CC(C)=C(C)C(=O)O1", "GI50": "0.348 µM and 0.31 µM", "TGI": 0.91}
{"compound": "O=C(Nc1ccc(Cl)cc1)c1cc(-c2ccc(F)cc2)c2sc(=O)[nH]c2n1", "GI50": "1.76 µM", "TGI": 3.82}
{"compound": "Cc1cn2c(/C=C3/C(=O)N(C)c4ccccc43)c(C)nc2s1", "GI50": "3.93 µM", "TGI": 21}
{"compound": "CCOC(=O)NC(=O)c1cn(CCOCCOC(=O)NCCCCCCNC(=O)OCCOCCn2cc(C(=O)NC(=O)OCC)c(=O)[nH]c2=O)c(=O)[nH]c1=O", "TGI": "> 100"}
{"compound": "Cc1ccc(C(=NN=C(N)N)c2ccc(C)cc2)cc1", "GI50": "0.445 µM", "TGI": 1.41}
{"compound": "CCS(=O)(=O)c1ccc(OC)c(Nc2ncc(-c3cccc(OC)c3)o2)c1", "GI50": "10.3 µM", "TGI": "> 25"}
{"compound": "CCCCN=C(N)c1ccc(OCCSCCOc2ccc(C(N)=NCCCC)cc2)cc1", "GI50": "3.1 µM", "TGI": 15}
{"compound": "COC(=O)c1cccc2cccc(C(=O)Nc3ccc(C)cc3C)c12", "TGI": "> 100"}
{"compound": "CC(C)c1ccc(C(=O)Nc2sc3c(c2C(N)=O)CCC(=O)C3)cc1", "GI50": "0.564 µM", "TGI": 1.9}
{"compound": "Cc1ccccc1N(CCC#N)C1=NN(C(=O)CC(=O)Nc2ccccc2)C(c2ccccc2)C1", "note": "(stereo not drawn)", "TGI": "> 100"}
{"compound": "CC1(n2nc(-c3ccccc3)n(-c3ccccc3)c2=O)CSC1", "TGI": "> 100"}
{"test_system": "SNB-75 CNS", "assay": "NCI-60 cell line screen, 48 h"}
{"compound": "CC(=O)OC1CC(O)C23COC(O)C1(C)C2CC(O)C1(C)C3C(=O)C(O)C2(C)C(c3ccoc3)CC3OC321", "note": "(stereo not drawn)", "GI50": "< 0.0397 µM", "TGI": "> 100 µM"}
{"compound": "Cn1cc(C(=O)c2ccccc2)ccc1=O", "TGI": "> 100 µM"}
{"compound": "COc1ccc(C(C)c2cc3c(cc2OC)OCO3)cc1", "note": "(stereo not drawn)", "TGI": "> 100 µM"}
{"compound": "O=C(CP(=O)(c1ccccc1)c1ccccc1)c1cccc(C(=O)CP(=O)(c2ccccc2)c2ccccc2)c1", "TGI": "37.6 µM"}
{"compound": "CCc1[nH]c(=O)nc(N)c1-c1ccc(N2CCCCC2)c([N+](=O)[O-])c1", "TGI": "> 100 µM"}
{"compound": "COC(=O)C(=O)C(C(=O)C(=O)Nc1ccccc1C(N)=O)c1nc2ccc(Cl)cc2[nH]c1=O", "note": "(stereo not drawn)", "TGI": "> 100 µM"}
{"compound": "CCC#CC[C@H]1C/C=C2/C(=O)C=C[C@@H]2C/C=C\\CCCC(=O)O1", "GI50": "4.38 µM", "TGI": "10.8 µM"}
{"compound": "COc1cc(OC)c(/C=C/C(=O)c2c(OC)cccc2OC)c(OC)c1", "GI50": "0.339 µM"}
{"compound": "COc1cc[nH]c1/C=C1\\C(=O)Nc2ccccc21", "GI50": "5.9 µM", "TGI": "> 25 µM"}
{"compound": "CC(=O)OC[C@]12CC[C@H]3[C@@H](C[C@H]4O[C@]45[C@@H](O)C=CC(=O)[C@]35C)[C@@H]1CC[C@@H]2[C@H](C)[C@H]1CC(C)=C(C)C(=O)O1", "GI50": "0.261 µM and 0.264 µM", "TGI": "0.953 µM and 1.25 µM"}
{"compound": "O=C(Nc1ccc(Cl)cc1)c1cc(-c2ccc(F)cc2)c2sc(=O)[nH]c2n1", "GI50": "2.02 µM", "TGI": "5.33 µM"}
{"compound": "Cc1cn2c(/C=C3/C(=O)N(C)c4ccccc43)c(C)nc2s1", "GI50": "4.69 µM", "TGI": "23.4 µM"}
{"compound": "CCOC(=O)NC(=O)c1cn(CCOCCOC(=O)NCCCCCCNC(=O)OCCOCCn2cc(C(=O)NC(=O)OCC)c(=O)[nH]c2=O)c(=O)[nH]c1=O", "TGI": "> 100 µM"}
{"compound": "Cc1ccc(C(=NN=C(N)N)c2ccc(C)cc2)cc1", "GI50": "0.845 µM", "TGI": "16.7 µM"}
{"compound": "CCS(=O)(=O)c1ccc(OC)c(Nc2ncc(-c3cccc(OC)c3)o2)c1", "GI50": "6.26 µM", "TGI": "> 18.2 µM"}
{"compound": "CCCCN=C(N)c1ccc(OCCSCCOc2ccc(C(N)=NCCCC)cc2)cc1", "GI50": "1.09 µM", "TGI": "16.2 µM"}
{"compound": "COC(=O)c1cccc2cccc(C(=O)Nc3ccc(C)cc3C)c12", "TGI": "> 100 µM"}
{"compound": "CC(C)c1ccc(C(=O)Nc2sc3c(c2C(N)=O)CCC(=O)C3)cc1", "GI50": "0.795 µM", "TGI": "2.65 µM"}
{"compound": "Cc1ccccc1N(CCC#N)C1=NN(C(=O)CC(=O)Nc2ccccc2)C(c2ccccc2)C1", "note": "(stereo not drawn)", "TGI": "96.7 µM"}
{"compound": "CC1(n2nc(-c3ccccc3)n(-c3ccccc3)c2=O)CSC1", "TGI": "> 100 µM"}
